Tests used:
[1] = test system: Colletotrichum orbiculare; test: Test Example H: Anthracnose on cucumber; conditions: for Test H control value: 6 to 10 days after inoculation; for Test H control value class: Anthracnose on cucumber (Sagami Hanjiro), 2.5 ml/pot, assessed 6 to 10 days after inoculation
[2] = test system: Alternaia brassicicola; test: Test Example C: Alternaria sooty spot on cabbage; type: in vivo; conditions: for Test C control value class: class of control value
Description: Seeds of a test plant (cabbage variety: Shikidori) were planted and cultivated until the cotyledons extended.
<Control Value> Control value=100{1−(n/3)}

[3] = test system: Puccinia recondita; test: Test Example E: Brown rust on wheat; type: in vivo; conditions: for Test E control value class: class of control value
[4] = test system: Botrytis cinerea; test: Test Example B: Gray mold on tomato; conditions: for Test B control value class: class of control value
[5] = test system: Magnaporthe grisea; test: whole plant or invertebrate; type: in vivo; conditions: for Test A control value class: class of control value
[6] = test system: Phytophthora infestans; test: whole plant or invertebrate; type: in vivo; conditions: for Test F control value class: class of control value
[7] = test system: Plasmopara viticola; test: Test Example G: Downy mildew on vine; conditions: for Test G control value: 7 to 10 days after inoculation; for Test G control value class: Downy mildew on vine (Neomuscat), 2.5 ml/pot, assessed 7 to 10 days after inoculation
[8] = test system: Blumeria graminis f. sp. hordei; test: Test Example D: Powdery mildew on barley; conditions: for Test D control value class: class of control value
[9] = Anthracnose on cucumber, 250 ppm spray
[10] = Alternaria sooty spot on cabbage, control value class
[11] = Brown rust on wheat, control value class
[12] = Gray mold on tomato, control value class
[13] = Blast on rice, control value class
[14] = Late blight on tomato, control value class
[15] = Downy mildew on vine, 250 ppm spray
[16] = Powdery mildew on barley, control value class
[17] = Alternaria sooty spot on cabbage
[18] = 250 ppm drug solution sprayed (2.5 ml/pot), cucumber Sagami Hanjiro
[19] = 250 ppm drug solution sprayed on test plant
[20] = 250 ppm drug solution sprayed (2.5 ml/pot), grape Neomuscat

SMILES | Test H control value [1, 9] | Test C control value [2, 10] | Test E control value [3, 11] | Test B control value [4, 12] | Test A control value [5, 13] | Test F control value [6, 14] | Test G control value [7, 15] | Test D control value [8, 16] | Test H control value class ([1]; 250 ppm spray) | Test C control value class [2, 17] | Test E control value class ([3]; Brown rust on wheat) | Test B control value class ([4]; Gray mold on tomato) | Test A control value class ([5]; Blast on rice) | Test F control value class ([6]; Late blight on tomato) | Test G control value class ([7]; 250 ppm spray) | Test D control value class ([8]; Powdery mildew on barley) | other results
CCCCc1ccc(=O)n(CC)c1-c1ccc(F)cc1Cl [compound 205] | L (50% or less control value) | H (more than 50% control value) | H (more than 50% control value) | H (more than 50% control value) | H (more than 50% control value) | L (50% or less control value) | H (more than 50% control value) | H (more than 50% control value) | – | – | – | – | – | – | – | – | –
CCC1=C(c2ccc(F)cc2Cl)N(C)C(=O)CC1 [compound 312] | L (50% or less control value) | H (more than 50% control value) | L (50% or less control value) | L (50% or less control value) | L (50% or less control value) | L (50% or less control value) | L (50% or less control value) | L (50% or less control value) | – | – | – | – | – | – | – | – | –
CCn1c(-c2c(F)cc(F)cc2F)c(C(C)(F)CC)cc(Cl)c1=O (centres unmarked) [compound 56] | – | – | – | – | – | – | – | – | H (more than 50% control value) | H (more than 50% control value) | H (more than 50% control value) | H (more than 50% control value) | H (more than 50% control value) | L (50% or less control value) | H (more than 50% control value) | H (more than 50% control value) | –
CCC(OC)c1cc(Cl)c(=O)n(CC)c1-c1c(F)cc(F)cc1F (centres unmarked) [compound 47] | – | – | – | – | – | – | – | – | H (more than 50% control value) | H (more than 50% control value) | H (more than 50% control value) | H (more than 50% control value) | H (more than 50% control value) | L (50% or less control value) | H (more than 50% control value) | H (more than 50% control value) | –
CCn1c(-c2c(F)cc(F)cc2F)c(C(C)O)cc(Cl)c1=O (centres unmarked) [compound 514] | – | – | – | – | – | – | – | – | – | – | – | – | – | – | – | – | Test H control value [1, 18]: H (more than 50% control value); Test C control value [2, 19]: H (more than 50% control value); Test E control value [3, 19]: H (more than 50% control value); Test B control value [4, 19]: H (more than 50% control value); Test A control value [5, 19]: L (50% or less control value); Test F control value [6, 19]: L (50% or less control value); Test G control value [7, 20]: H (more than 50% control value); Test D control value [8, 19]: H (more than 50% control value)
CCn1c(-c2c(F)cc(OC)cc2F)c(C(C)C(C)C)cc(Cl)c1=O (racemic) [compound 171] | – | – | – | – | – | – | – | – | H (more than 50% control value) | H (more than 50% control value) | H (more than 50% control value) | H (more than 50% control value) | H (more than 50% control value) | L (50% or less control value) | H (more than 50% control value) | H (more than 50% control value) | –
CC(C)Cc1cc(Cl)c(=O)n(CC(F)F)c1-c1c(F)cc(F)cc1F [compound 304] | H (more than 50% control value) | H (more than 50% control value) | H (more than 50% control value) | H (more than 50% control value) | H (more than 50% control value) | L (50% or less control value) | L (50% or less control value) | H (more than 50% control value) | – | – | – | – | – | – | – | – | –
CCn1c(-c2ccc(C)cc2F)c(CC(C)C)ccc1=O [compound 141] | – | – | – | – | – | – | – | – | L (50% or less control value) | H (more than 50% control value) | H (more than 50% control value) | H (more than 50% control value) | H (more than 50% control value) | L (50% or less control value) | H (more than 50% control value) | H (more than 50% control value) | –
CCn1c(-c2c(F)cc(OC)cc2F)c(C(C)(F)CC)cc(Cl)c1=O (centres unmarked) [compound 61] | – | – | – | – | – | – | – | – | H (more than 50% control value) | H (more than 50% control value) | H (more than 50% control value) | H (more than 50% control value) | H (more than 50% control value) | L (50% or less control value) | H (more than 50% control value) | H (more than 50% control value) | –
CCn1c(-c2c(F)cc(F)cc2F)c(C(C)(O)C2CC2)cc(Cl)c1=O (centres unmarked) [compound 261] | H (more than 50% control value) | H (more than 50% control value) | H (more than 50% control value) | H (more than 50% control value) | H (more than 50% control value) | L (50% or less control value) | H (more than 50% control value) | H (more than 50% control value) | – | – | – | – | – | – | – | – | –
CCc1cc(F)ccc1-c1c(CC(C)C)cc(Cl)c(=O)n1CC [compound 263] | H (more than 50% control value) | H (more than 50% control value) | H (more than 50% control value) | H (more than 50% control value) | H (more than 50% control value) | L (50% or less control value) | H (more than 50% control value) | H (more than 50% control value) | – | – | – | – | – | – | – | – | –
CCn1c(-c2c(F)cc(F)cc2F)c(C(C)(CC)OC)cc(Cl)c1=O (centres unmarked) [compound 54] | – | – | – | – | – | – | – | – | H (more than 50% control value) | H (more than 50% control value) | H (more than 50% control value) | H (more than 50% control value) | H (more than 50% control value) | L (50% or less control value) | L (50% or less control value) | H (more than 50% control value) | –
CCn1c(-c2c(F)cc(OC)cc2F)c(C(C)(O)CC)cc(Br)c1=O (centres unmarked) [compound 500] | – | – | – | – | – | – | – | – | – | – | – | – | – | – | – | – | Test H control value [1, 18]: H (more than 50% control value); Test C control value [2, 19]: H (more than 50% control value); Test E control value [3, 19]: H (more than 50% control value); Test B control value [4, 19]: H (more than 50% control value); Test A control value [5, 19]: H (more than 50% control value); Test F control value [6, 19]: L (50% or less control value); Test G control value [7, 20]: H (more than 50% control value); Test D control value [8, 19]: L (50% or less control value)
CCCc1cc(Cl)c(=O)n(CC)c1-c1c(F)cc(OCC)cc1F [compound 457] | – | – | – | – | – | – | – | – | – | – | – | – | – | – | – | – | Test H control value [1, 18]: H (more than 50% control value); Test C control value [2, 19]: H (more than 50% control value); Test E control value [3, 19]: H (more than 50% control value); Test B control value [4, 19]: H (more than 50% control value); Test A control value [5, 19]: H (more than 50% control value); Test F control value [6, 19]: L (50% or less control value); Test G control value [7, 20]: L (50% or less control value); Test D control value [8, 19]: H (more than 50% control value)
CCn1c(-c2c(F)cc(OC)cc2F)c(C(C)(C)OC)cc(Cl)c1=O [compound 113] | – | – | – | – | – | – | – | – | H (more than 50% control value) | H (more than 50% control value) | H (more than 50% control value) | H (more than 50% control value) | H (more than 50% control value) | L (50% or less control value) | L (50% or less control value) | L (50% or less control value) | –
CCc1cc(Br)c(=O)n(CC)c1-c1ccc(F)cc1Br [compound 343] | H (more than 50% control value) | H (more than 50% control value) | H (more than 50% control value) | H (more than 50% control value) | H (more than 50% control value) | L (50% or less control value) | H (more than 50% control value) | H (more than 50% control value) | – | – | – | – | – | – | – | – | –

From patent US11147272B2, “Pyridone compounds and agricultural and horticultural fungicides comprising the same as active ingredients” (MITSUI CHEMICALS AGRO, INC., priority 2017, dated 2021)
